Values quoted from earlier work in publication PMC6381106 (Scientific Reports, 2019).

System: TLR4
Settings: literature; ref [62]–[65]; cited from earlier work
Description: Multiple anti-inflammatory immunomodulatory therapies have been developed to ameliorate proinflammation following bacterial infection. […] Therefore, novel therapeutic approaches that decrease inflammatory responses should be developed, and researchers should expand the focus beyond agents that only treat the initial infe ...

CCOC(=O)C1=CCCC[C@H]1S(=O)(=O)Nc1ccc(F)cc1Cl [TAK-242]
outcome in clinical trials (TLR4 inhibitor; in words): unsuccessful in clinical trials
